Consider seven molecules from patent US10793568B2, “Hormone receptor modulators for treating metabolic conditions and disorders” (ARDELYX, INC., priority 2016, dated 2020).

Bounds are passed on as bounds.

Test [1] addresses ligand binding domain of human FXR (Homo sapiens (Human), UniProt Q96RI1). The test is described as follows: FXR ligand binding assay (LanthaScreen TR-FRET, SRC2-2 peptide recruitment). As to conditions: for pEC50: -log EC50, concentration required to produce 50% activation; for Emax: extent of activation relative to GW4064, read-out: % Efficacy. (TR-FRET usually uses a lanthanide donor and a delayed reading to cut background.)

The target in test [2] is human Farnesoid X receptor ligand-binding domain/Gal4 DNA binding domain chimera (Homo sapiens (Human), UniProt Q96RI1). As to the kind of experiment: Cell-based assay of FXR activation (FXR-UAS-bla HEK 293T beta-lactamase reporter). As to conditions: cellular FXR beta-lactamase reporter assay; for Emax: HEK-293T, extent of activation relative to GW4064, read-out: % Efficacy; for EC50: FXR-UAS-bla HEK 293T cells, 16 h, pEC50 = -log EC50. The method in brief:
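HEK 293T cells stably expressing a Gal4-fused human FXR LBD and a UAS-driven beta-lactamase reporter were incubated with serially diluted compounds for 16 h at 37 °C in phenol red-free DMEM with 2% charcoal-stripped FBS. CCF4 FRET read-out: excitation 409 nm, emission 447 nm. pEC50 comes from a 3-parameter logistic fit, and efficacy is given as % of GW4064.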
For orientation: In a reporter assay the amount or activity of a reporter protein is the signal.

Chain of ligand binding domain of human FXR (Q96RI1 262-486): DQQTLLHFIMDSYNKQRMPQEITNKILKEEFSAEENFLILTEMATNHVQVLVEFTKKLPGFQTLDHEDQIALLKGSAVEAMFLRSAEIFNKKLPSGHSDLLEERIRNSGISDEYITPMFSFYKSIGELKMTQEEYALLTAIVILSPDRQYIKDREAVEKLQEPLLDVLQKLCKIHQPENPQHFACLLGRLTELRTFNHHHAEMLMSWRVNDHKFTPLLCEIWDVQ
Chain of human Farnesoid X receptor ligand-binding domain/Gal4 DNA binding domain chimera (Q96RI1 262-486, change not shown): as the sequence (Q96RI1 262-486) above
Chain of human Farnesoid X receptor ligand-binding domain/Gal4 DNA binding domain chimera (P04386 1-147 partner): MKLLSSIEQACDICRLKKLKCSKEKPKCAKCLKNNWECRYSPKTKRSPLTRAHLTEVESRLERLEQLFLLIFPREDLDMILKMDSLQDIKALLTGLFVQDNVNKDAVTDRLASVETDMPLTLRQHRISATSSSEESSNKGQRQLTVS

Broadly, the pEC50 is the negative decadic logarithm of the EC50, by convention in mol/L. In general, EC50 refers to the concentration giving half of the maximal effect. For `O=C(O)c1cc(C(F)(F)F)c2nc(N3C[C@@H]4C[C@H]3C[C@H]4OCc3c(-c4c(Cl)cccc4Cl)noc3C3CC3)sc2c1` [Compound I-15, 2-[(1S,4S,5R)-5-{[5-cyclopropyl-3-(2,6-dichlorophenyl)-1,2-oxazol-4-yl]methoxy}-2-azabicyclo[2.2.1]heptan-2-yl]-4-(trifluoromethyl)-1,3-benzothiazole-6-carboxylic acid], in test [1], the pEC50 is given as 7.8 and the Emax was 150%. In test [2], the Emax came out at 104% and a half-maximal response (EC50) required 0.251 nM.
For the molecule `Fc1cc(-c2nn[nH]n2)cc2sc(N3C[C@@H]4C[C@H]3C[C@H]4OCc3c(-c4c(Cl)cccc4Cl)noc3C3CC3)nc12` [Compound I-26, 2-[(1S,4S,5R)-5-{[5-cyclopropyl-3-(2,6-dichlorophenyl)-1,2-oxazol-4-yl]methoxy}-2-azabicyclo[2.2.1]heptan-2-yl]-4-fluoro-6-(2H-1,2,3,4-tetrazol-5-yl)-1,3-benzothiazole], in test [1], the pEC50 was 8.4 and the Emax came to 137%. Further, in test [2], the Emax came to 106% and the midpoint of the response, the EC50, lay at 25.1 nM.
Regarding `CN1CCC(S(=O)(=O)NC(=O)c2ccc(N3C[C@@H]4C[C@H]3C[C@H]4OCc3c(-c4c(Cl)cccc4Cl)noc3C3CC3)cc2)CC1` [Compound I-187, 4-((1S,4S,5R)-5-((5-cyclopropyl-3-(2,6-dichlorophenyl)isoxazol-4-yl)methoxy)-2-azabicyclo[2.2.1]heptan-2-yl)-N-((1-methylpiperidin-4-yl)sulfonyl)benzamide], in test [1], the pEC50 was 9.2 and the Emax was 156%. Moreover, in test [2], the Emax worked out at 104% and it took 10 nM to reach a half-maximal effect (EC50).
As to `O=C(O)c1cc(F)c2nc(N3C[C@H]4C[C@@H]3[C@H](OC(=O)c3c(-c5c(Cl)cccc5Cl)noc3C3CC3)C4)sc2c1` [Compound I-63, 2-[(1R,4S,6R)-6-[5-cyclopropyl-3-(2,6-dichlorophenyl)-1,2-oxazole-4-carbonyloxy]-2-azabicyclo[2.2.1]heptan-2-yl]-4-fluoro-1,3-benzothiazole-6-carboxylic Acid], in test [1], the pEC50 is 8.7 and the Emax came out at 13%. This molecule had an EC50 in test [2] of under 31600 nM.
As for `O=C(O)c1ccc(N2C[C@@H]3C[C@H]2C[C@H]3OCc2c(-c3c(Cl)cccc3Cl)noc2C2CC2)c(C2CC2)c1` [Compound I-108, 3-cyclopropyl-4-((1S,4S,5R)-5-((5-cyclopropyl-3-(2,6-dichlorophenyl)isoxazol-4-yl)methoxy)-2-azabicyclo[2.2.1]heptan-2-yl)benzoic acid], in test [1], the pEC50 was 9.1 and the Emax came out at 117%. In test [2], the Emax was determined as 101% and the response was half-maximal at 3.98 nM (EC50).
Consider `CCc1cc(C(=O)O)ccc1N1C[C@@H]2C[C@H]1C[C@H]2OCc1c(-c2c(Cl)cccc2Cl)noc1C1CC1` [Compound I-109, 4-((1S,4S,5R)-5-((5-cyclopropyl-3-(2,6-dichlorophenyl)isoxazol-4-yl)methoxy)-2-azabicyclo[2.2.1]heptan-2-yl)-3-ethylbenzoic acid], for which, in test [1], the pEC50 was 9.4 and the Emax was 117%. Moreover, in test [2], the Emax worked out at 100% and the 50% effective concentration (EC50) is 1.58 nM.
With `CC(=O)NCCCCCCCCCCS(=O)(=O)NC(=O)c1ccc(N2C[C@@H]3C[C@H]2C[C@H]3OCc2c(-c3c(Cl)cccc3Cl)noc2C2CC2)c(F)c1` [Compound I-224, N-{10-[({4-[(1S,4S,5R)-5-{[5-cyclopropyl-3-(2,6-dichlorophenyl)-1,2-oxazol-4-yl]methoxy}-2-azabicyclo[2.2.1]heptan-2-yl]-3-fluorophenyl}formamido)sulfonyl]decyl}acetamide], in test [1], the pEC50 worked out at 8.1 and the Emax was determined as 155%. Moreover, in test [2], the Emax came to 104% and the EC50 was 2.51 nM.
